Measurements as given in publication PMC11375437, “Selective labelling of GBA2 in cells with fluorescent β-D-arabinofuranosyl cyclitol aziridines” (Chemical Science, 2024).

Target: T1, GBA2 (Homo sapiens, UniProt Q9HCG7)
T1 sequence (Q9HCG7 1-927): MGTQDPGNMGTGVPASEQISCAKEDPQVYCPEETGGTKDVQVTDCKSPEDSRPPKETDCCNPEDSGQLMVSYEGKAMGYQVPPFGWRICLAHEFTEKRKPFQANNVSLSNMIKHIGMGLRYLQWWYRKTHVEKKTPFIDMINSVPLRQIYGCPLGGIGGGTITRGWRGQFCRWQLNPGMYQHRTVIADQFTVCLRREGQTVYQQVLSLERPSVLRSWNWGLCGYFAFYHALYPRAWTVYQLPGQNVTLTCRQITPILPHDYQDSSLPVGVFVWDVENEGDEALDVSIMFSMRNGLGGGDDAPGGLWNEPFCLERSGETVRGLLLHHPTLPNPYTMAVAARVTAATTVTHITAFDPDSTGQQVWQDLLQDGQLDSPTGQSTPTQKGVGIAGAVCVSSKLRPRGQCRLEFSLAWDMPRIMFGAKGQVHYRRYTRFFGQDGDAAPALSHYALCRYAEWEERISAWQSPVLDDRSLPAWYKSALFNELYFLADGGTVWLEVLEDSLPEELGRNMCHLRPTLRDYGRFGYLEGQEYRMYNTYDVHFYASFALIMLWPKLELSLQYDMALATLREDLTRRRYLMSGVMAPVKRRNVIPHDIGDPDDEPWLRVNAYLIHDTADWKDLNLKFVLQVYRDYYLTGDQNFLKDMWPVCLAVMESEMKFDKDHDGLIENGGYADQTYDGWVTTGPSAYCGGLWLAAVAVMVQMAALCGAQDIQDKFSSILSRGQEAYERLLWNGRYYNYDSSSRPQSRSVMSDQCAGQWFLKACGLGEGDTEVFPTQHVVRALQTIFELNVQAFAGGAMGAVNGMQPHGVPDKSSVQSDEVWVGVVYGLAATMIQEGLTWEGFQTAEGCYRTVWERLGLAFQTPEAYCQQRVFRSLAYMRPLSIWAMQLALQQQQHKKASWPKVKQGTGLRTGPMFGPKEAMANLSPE
Assay: In vitro ABP labelling of HEK293T lysates (ABPP, SDS-PAGE fluorescence scanning)
Format: biochemical
Parameters: expressed in transfected cells; host or cells: HEK293T GBA1/GBA2 KO (CRISPR/Cas9), GBA2 overexpressed
Conditions: for Concentration at which GBA2 is selectively labelled: 30 min, pH 6.0
Protocol: To this end, lysates of HEK293T cells containing all β-glucosidases (endogenous GBA1 with overexpressed GBA2 and GBA3) were treated with ABPs 3, 4, 5 or 7, followed by protein separation by SDS-PAGE and fluorescence scanning of the wet gel slabs. […] In contrast, the β-D-Araf aziridine ABPs 3 and 4 selectively labelled GBA2 at a concentration of 100 nM, while Cy5 tagged ABP 5 did so at 500 nM. The GBA2 selectivity of β-D-Araf cyclitol aziridines 3, 4 and 5 was confirmed in a mixture of a lysate of overexpressed GBA2 cells spiked with 3 ng rhGBA1 (Fig. 2C and ESI Fig. S3 ^†). In this experiment, the enzyme mixture was first incubated with β-D-Araf aziridine ABPs 3, 4, or 5 for 30 minutes, after which selective GBA1 ABP 10 [32] or 11 [30] was added to label the remaining active rhGBA1 active site. […] The pH and incubation time dependence labelling of GBA2 in HEK293T cells containing all three retaining β-glucosidases by β-D-Araf ABPs was next investigated (Fig. 2D, E and ESI Fig. S4 ^†). All ABPs selectively label GBA2 at a pH range of 4.5–7.5. Using 500 nM of ABP 4, GBA2 labelling occurred within a minute, and maximal labelling was observed after 20–30 minutes. […] Therefore, only a combined inactivation rate constant (kinact) and binding constant (KI) ratio (kinact/KI) could be measured. […] Importantly, no labelling of GBA1 or GBA3 was detected under varying pH and time conditions (ESI Fig. S4-2 ^†). […]
2.6 Visualization of ABP labelling towards β-glucosidases by activity-based protein profiling (ABPP) with SDS-PAGE
β-Glucosidases were labeled with excess of fluorescent ABPs at optimum conditions at 37 °C for 30 min (if not otherwise stated). The total sample volume was 20–40 μL with 0.5–1% DMSO concentration in appropriate pH McIlvaine buffer (150 mM). To label lysates containing all β-glucosidases (GBA1, GBA2 and GBA3), ABP 7 was used at pH 6.0 in McIlvaine buffer. To label lysate only containing GBA2 (GBA1/2 KO and GBA2 OE cell lysate), ABP (3-5, or 7) was incubated at pH 5.8 in McIlvaine buffer was used. To label rhGBA1 (Imiglucerase), ABP (10 or 11) at pH 5.2 in McIlvaine buffer supplemented with 0.1% (v/v) Triton X-100 and 0.2% (w/v) sodium taurocholate were used.
After incubation with the corresponding ABPs, proteins were denatured by boiling the samples with 5× Laemmli buffer (50% (v/v) 1 M Tris-HCl, pH 6.8, 50% (v/v) 100% glycerol, 10% (w/v) DTT, 10% (w/v) SDS, 0.01% (w/v) bromophenol blue, diluted into 1x for use) for 5 min at 98 °C, and separated by electrophoresis on 10% SDS-PAGE gels run at 90 V for 1.0-1.5 h. Wet slab-gels were imaged using the Typhoon FLA 9500 scanner (GE Healthcare, Eindhoven, The Netherlands) at λEX 473 nm and λEM ≥ 510 nm for BODIPY green fluorescence; at λEX 532 nm and λEM ≥ 575 nm for the BODIPY red fluorescence ; at λEX 635 nm and λEM ≥ 665 nm for Cy5 fluorescence. Afterwards, wet slab-gels were stained by Coomassie brilliant blue (CBB) G250 or R250 for total protein staining and scanned with a ChemiDocTM MP Imaging System (Bio-Rad, Veenendaal, The Netherlands).
2.7 Determination of kinetic parameters of ABP 4
The kinetic parameters of ABP 4 for GBA2 was determined by SDS-PAGE analysis in lysates of HEK293T GBA1/2 knock out GBA2 overexpression cells in which the relative intensity of the band on wet gel slabs (compared to labelling control) was used to calculate the inactivation parameters of GBA2. Lysates were made as previous cell lysis description. […]

[1] = HEK293T lysate, endogenous GBA1, overexpressed GBA2 and GBA3

## CN1/C(=C/C=C/C=C/C2=[N+](CCCCCC(=O)NCc3cn(CCCCCCCCN4[C@@H]5[C@H](CO)[C@@H](O)[C@H](O)[C@@H]54)nn3)c3ccccc3C2(C)C)C(C)(C)c2ccccc21 (some centres unmarked) [ABP 5]
[1]
  Concentration at which GBA2 is selectively labelled: 500 nM

## CN1/C(=C/C=C/C=C/C2=[N+](CCCCCC(=O)NCc3cn(CCCCCCCCN4[C@@H]5[C@H](CO)[C@@H](O)[C@H](O)[C@@H](O)[C@@H]54)nn3)c3ccccc3C2(C)C)C(C)(C)c2ccccc21 (some centres unmarked) [ABP 7]
[1]
  β-Glucosidases labelled in lysate: labelled all three β-glucosidases

## CC1=CC(C)=[N+]2C1=C(CCCCc1cn(CCCCCCCCN3[C@@H]4[C@H](CO)[C@@H](O)[C@H](O)[C@@H]43)nn1)c1c(C)cc(C)n1[B-]2(F)F (some centres unmarked) [ABP 3]
[1]
  Concentration at which GBA2 is selectively labelled: 100 nM

## COc1ccc(C2=[N+]3C(=C(CCCCc4cn(CCCCCCCCN5[C@@H]6[C@H](CO)[C@@H](O)[C@H](O)[C@@H]65)nn4)c4ccc(-c5ccc(OC)cc5)n4[B-]3(F)F)C=C2)cc1 (some centres unmarked) [ABP 4]
500 nM ABP, HEK293T lysate containing all three β-glucosidases
  Time to maximal GBA2 labelling: 20 to 30 min
[1]
  Concentration at which GBA2 is selectively labelled: 100 nM
